≈ marks a conversion by molar mass, not a printed value. Where “and” joins values, the source holds several entries; their conditions need not be identical. Equal entries are not always repeated. Where two headings read alike, the source gives them in different places.
Experiments:
[1] = tested on: HIV-1 LAV; assay: Inhibition of inducible HIV-1 LAV replication in OM-10.1 (RT values); format: cell-based, human immunodeficiency virus type 1; conditions: for RT Values: SAMPLE 1-3, MEAN
[2] = tested on: Japanese encepahalitis virus SA-14; assay: Japanese encephalitis virus antiviral screen in Vero 76; format: cell-based; conditions: JEV SA-14, Vero 76
[3] = tested on: West Nile virus Kern 515, WN02; assay: West Nile virus antiviral screen in Vero 76; format: cell-based
[4] = tested on: RD; assay: Cytotoxicity on RD host cells; format: cell-based
[5] = tested on: PBMC
[6] = tested on: Vero
[7] = tested on: Vero 76
[8] = tested on: MA-104
[9] = tested on: CCRF-CEM; assay: Cytotoxicity on CCRF-CEM; conditions: CCRF-CEM
[10] = tested on: OM-10.1 cells; assay: Toxicity in OM-10.1 (Cell Titer 96); conditions: for TOXICITY VALUES (Cell Titer 96): SAMPLE 1-3, MEAN
[11] = tested on: RAW267.4; assay: Toxicity in RAW267.4 cells (neutral red); conditions: Neutral Red (Toxicity)
[12] = tested on: MDCK; conditions: dog
[13] = molecular target: T1, cytosolic GRs (Homo sapiens, UniProt P04150); conditions: Peeters et al., 2008; cited from earlier work
T1 sequence (P04150 1-777): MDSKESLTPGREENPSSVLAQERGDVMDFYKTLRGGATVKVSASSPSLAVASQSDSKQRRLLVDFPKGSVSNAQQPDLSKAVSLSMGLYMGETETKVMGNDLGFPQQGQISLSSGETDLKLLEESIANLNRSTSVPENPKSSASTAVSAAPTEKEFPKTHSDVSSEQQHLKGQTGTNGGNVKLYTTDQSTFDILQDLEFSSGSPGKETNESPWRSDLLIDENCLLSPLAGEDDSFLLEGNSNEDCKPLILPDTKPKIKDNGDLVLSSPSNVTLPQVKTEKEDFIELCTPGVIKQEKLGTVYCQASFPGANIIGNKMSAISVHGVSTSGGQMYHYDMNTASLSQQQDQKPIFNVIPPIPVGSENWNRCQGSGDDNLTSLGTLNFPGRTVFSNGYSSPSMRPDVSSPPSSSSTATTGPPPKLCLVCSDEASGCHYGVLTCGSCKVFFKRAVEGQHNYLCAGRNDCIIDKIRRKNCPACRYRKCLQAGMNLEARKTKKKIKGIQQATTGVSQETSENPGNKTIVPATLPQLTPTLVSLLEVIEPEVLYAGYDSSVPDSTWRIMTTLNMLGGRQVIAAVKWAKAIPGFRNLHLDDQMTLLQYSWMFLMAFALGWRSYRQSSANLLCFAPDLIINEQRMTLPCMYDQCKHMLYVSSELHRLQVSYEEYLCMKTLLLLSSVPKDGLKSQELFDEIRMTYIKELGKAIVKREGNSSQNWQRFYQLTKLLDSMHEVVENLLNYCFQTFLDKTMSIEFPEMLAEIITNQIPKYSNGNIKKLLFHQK

[14] = molecular target: cytosolic progesterone receptors (PR) (Homo sapiens, UniProt P06401); conditions: Peeters et al., 2008; cited from earlier work
[15] = rats, twice daily 4 mg kg−1 po; cited from earlier work
[16] = molecular target: GR (Mus musculus, UniProt P06537); conditions: cited from earlier work
[17] = cited from earlier work
[18] = in vitro; conditions: African green monkey, Cytotoxicity CC50
[19] = in vitro
[20] = in vitro; conditions: African green monkey
[21] = in vitro; conditions: dog
[22] = Cytotoxicity on CCRF-CEM; conditions: human
[23] = Visual (Cytopathic effect/Toxicity), unit from Conc. Range

Chain of GR (P06537 whole entry): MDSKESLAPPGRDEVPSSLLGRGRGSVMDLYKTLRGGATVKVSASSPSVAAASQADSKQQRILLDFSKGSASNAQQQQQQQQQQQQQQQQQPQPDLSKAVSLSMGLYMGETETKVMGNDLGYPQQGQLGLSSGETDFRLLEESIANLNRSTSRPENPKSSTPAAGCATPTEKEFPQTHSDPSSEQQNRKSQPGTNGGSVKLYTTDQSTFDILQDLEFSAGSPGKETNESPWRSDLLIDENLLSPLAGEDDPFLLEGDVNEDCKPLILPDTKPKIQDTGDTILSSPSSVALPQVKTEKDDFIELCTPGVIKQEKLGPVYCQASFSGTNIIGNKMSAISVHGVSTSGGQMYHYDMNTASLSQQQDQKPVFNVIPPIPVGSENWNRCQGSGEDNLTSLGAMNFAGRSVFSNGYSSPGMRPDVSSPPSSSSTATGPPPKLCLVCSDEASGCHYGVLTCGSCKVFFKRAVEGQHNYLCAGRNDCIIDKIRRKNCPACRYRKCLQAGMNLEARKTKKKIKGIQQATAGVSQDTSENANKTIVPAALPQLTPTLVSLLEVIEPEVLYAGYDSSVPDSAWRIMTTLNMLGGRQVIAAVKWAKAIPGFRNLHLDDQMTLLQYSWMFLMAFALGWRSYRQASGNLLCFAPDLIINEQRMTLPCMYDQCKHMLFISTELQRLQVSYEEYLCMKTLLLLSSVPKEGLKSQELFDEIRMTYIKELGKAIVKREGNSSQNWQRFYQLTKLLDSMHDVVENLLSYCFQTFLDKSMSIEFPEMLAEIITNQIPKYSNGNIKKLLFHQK
Chain of cytosolic progesterone receptors (PR) (P06401 whole entry): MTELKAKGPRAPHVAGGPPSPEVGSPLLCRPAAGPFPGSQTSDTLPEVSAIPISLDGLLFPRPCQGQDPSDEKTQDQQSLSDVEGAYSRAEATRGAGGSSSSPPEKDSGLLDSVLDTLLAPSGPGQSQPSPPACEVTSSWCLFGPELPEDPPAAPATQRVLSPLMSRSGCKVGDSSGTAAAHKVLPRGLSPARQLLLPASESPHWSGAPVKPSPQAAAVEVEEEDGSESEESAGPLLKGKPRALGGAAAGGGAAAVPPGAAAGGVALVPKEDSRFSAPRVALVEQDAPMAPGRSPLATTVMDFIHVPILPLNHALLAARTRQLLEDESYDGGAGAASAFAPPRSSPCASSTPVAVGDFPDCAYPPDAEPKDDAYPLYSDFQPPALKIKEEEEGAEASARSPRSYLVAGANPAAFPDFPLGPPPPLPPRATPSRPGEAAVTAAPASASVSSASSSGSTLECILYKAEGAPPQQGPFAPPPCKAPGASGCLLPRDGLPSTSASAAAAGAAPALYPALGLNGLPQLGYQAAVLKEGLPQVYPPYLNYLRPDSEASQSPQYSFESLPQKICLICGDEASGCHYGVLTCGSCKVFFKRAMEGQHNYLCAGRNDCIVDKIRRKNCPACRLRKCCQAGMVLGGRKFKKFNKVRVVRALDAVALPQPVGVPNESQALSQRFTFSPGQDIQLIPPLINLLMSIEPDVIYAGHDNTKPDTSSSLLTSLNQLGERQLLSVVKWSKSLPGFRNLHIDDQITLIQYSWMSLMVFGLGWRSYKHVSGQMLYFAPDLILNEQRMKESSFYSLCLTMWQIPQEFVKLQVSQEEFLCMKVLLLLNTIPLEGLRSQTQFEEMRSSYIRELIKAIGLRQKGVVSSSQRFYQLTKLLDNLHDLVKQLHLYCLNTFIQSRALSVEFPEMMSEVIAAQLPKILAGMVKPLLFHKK

CC#CC1(O)CCC2C3CCC4=CC(=NNC(N)=S)CCC4=C3C(c3ccc4c(c3)OCO4)CC21C.CC#CC1(O)CCC2C3CCC4=CC(=O)CCC4=C3C(c3ccc4c(c3)OCO4)CC21C.CC(C)=O.CCO.O (stereo not drawn) [PT155, ⅓ (11β,17β)-17-Hydroxy-11-[3,4-(methylenedioxy)phenyl]-17-(1-propyn-1-yl)estra-4,9-dien-3-one (ORG34517)×(2EZ)-2-{(11β,17β)-17-hydroxy-11-[3,4-(methylenedioxy)phenyl]-17-(1-propyn-1-yl)estra-4,9-dien-3-ylidene}hydrazinecarbothioamide [71.8% (E), 28.2% (Z)] hemihydrate×¾% acetone× ⅛ ethanol]
% VC ([1]; 0.01 μM): 100.0%
RT Values ([1]; 0.01 μM): 32320 cpm and 29982 cpm and 29144 cpm
% VC ([1]; 0.03 μM): 107.7%
RT Values ([1]; 0.03 μM): 33018 cpm and 33056 cpm and 32387 cpm
% VC ([1]; 0.10 μM): 99.8%
RT Values ([1]; 0.10 μM): 29801 cpm and 29663 cpm and 31726 cpm
% VC ([1]; 1.00 μM): 82.2%
RT Values ([1]; 1.00 μM): 23474 cpm and 26693 cpm and 24955 cpm
% VC ([1]; 3.16 μM): 57.9%
RT Values ([1]; 3.16 μM): 16156 cpm and 21122 cpm and 15662 cpm
% VC ([1]; 10.0 μM): 28.9%
RT Values ([1]; 10.0 μM): 8592 cpm and 7827 cpm and 10011 cpm
% VC ([1]; 31.6 μM): 15.8%
RT Values ([1]; 31.6 μM): 4254 cpm and 4765 cpm and 5466 cpm
% VC ([1]; 100 μM): 0.8%
IC50 ([1]; OM-10.1): 4.33 µM
IC90 ([1]; OM-10.1): 49.4 µM
IC 95% ([1]; OM-10.1): 72.4 µM
EC50 ([1]; OM-10.1, Table 7, read-out: EC50): 4.33 µM
EC90 ([1]; OM-10.1, Table 7, read-out: EC90): 49.4 µM
EC50 ([2]; Neutral Red (Cytopathic effect/Toxicity)): 2.6 µg/mL
EC50 [2, 23]: 2.6 µg/mL
EC50 ([3]; Neutral Red): >55 µg/mL
EC50 [3, 23]: >22 µg/mL
CC50 ([4]; Enterovirus D68 screen, Neutral red): 8.1 µg/mL
CC50 ([4]; Enterovirus D68 screen, Visual): 3.2 µg/mL
CC50 ([4]; read-out: Cytotoxicity 50% CC50, Enterovirus D68 screen, Tables 5-6): 5.8 µM
CC50 [5]: 82.6 µM
cellular growth at fixed 100 μM concentration [6]: (96.1) %
CC50 [7]: 45.4 µM
CC50 [8]: 17 µM
CC50 ([9]; Cytotoxicity control, CellTiter MTS): 7.1 µM
CC50 ([9]; read-out: Cytotoxicity CC50): 7.1 µM
% CC ([10]; 0.01 μM): 93.9%
TOXICITY VALUES (Cell Titer 96) ([10]; 0.01 μM): 0.707 O.D. @ 490/650 nm and 0.669 O.D. @ 490/650 nm and 0.567 O.D. @ 490/650 nm
% CC ([10]; 0.03 μM): 105.6%
TOXICITY VALUES (Cell Titer 96) ([10]; 0.03 μM): 0.749 O.D. @ 490/650 nm and 0.794 O.D. @ 490/650 nm and 0.642 O.D. @ 490/650 nm
% CC ([10]; 0.10 μM): 110.0%
TOXICITY VALUES (Cell Titer 96) ([10]; 0.10 μM): 0.867 O.D. @ 490/650 nm and 0.820 O.D. @ 490/650 nm and 0.590 O.D. @ 490/650 nm
% CC ([10]; 1.00 μM): 119.25%
TOXICITY VALUES (Cell Titer 96) ([10]; 1.00 μM): 0.937 O.D. @ 490/650 nm and 0.911 O.D. @ 490/650 nm and 0.618 O.D. @ 490/650 nm
% CC ([10]; 3.16 μM): 109.6%
TOXICITY VALUES (Cell Titer 96) ([10]; 3.16 μM): 0.896 O.D. @ 490/650 nm and 0.800 O.D. @ 490/650 nm and 0.572 O.D. @ 490/650 nm
% CC ([10]; 10.0 μM): 105.7%
TOXICITY VALUES (Cell Titer 96) ([10]; 10.0 μM): 0.828 O.D. @ 490/650 nm and 0.761 O.D. @ 490/650 nm and 0.599 O.D. @ 490/650 nm
% CC ([10]; 31.6 μM): 93.4%
TOXICITY VALUES (Cell Titer 96) ([10]; 31.6 μM): 0.714 O.D. @ 490/650 nm and 0.682 O.D. @ 490/650 nm and 0.536 O.D. @ 490/650 nm
% CC ([10]; 100 μM): 112.5%
TOXICITY VALUES (Cell Titer 96) ([10]; 100 μM): 0.777 O.D. @ 490/650 nm and 0.775 O.D. @ 490/650 nm
TC 90% ([10]; OM-10.1): >100 µM
TC 95% ([10]; OM-10.1): >100 µM
CC50 ([10]; OM-10.1, Table 7): > 100 µM
CC50 ([10]; read-out: TC 50%, OM-10.1): > 100 µM
CC50 ([11]; Example 11): 34 µM
CC50 ([11]; Example 11, listed as 16-000163): 35 µM

CC#C[C@]1(O)CC[C@H]2[C@@H]3CCC4=CC(=O)CCC4=C3[C@@H](c3ccc4c(c3)OCO4)C[C@@]21C [PT150, (11β,17β)-11-(1,3-benzodioxol-5-yl)-17-hydroxy-17-(1-propynyl)-estra-4,9-dien-3-one]
CC50 [12]: 37 µg/mL (≈ 85.9 µM)
bound to cytosolic GRs, value [13]: 365%
value for the cytosolic progesterone receptors (PR) [14]: 6.4%
embryos lost [15]: ~100%
block of corticosterone-induced GR translocation [16]: able to block corticosterone-induced GR translocation
adverse indications of cell toxicity ([17]; Phase II, patients, 900 mg per day for 2 weeks): no noted adverse indications of cell toxicity
significant toxicities and side effects ([17]; phase I and phase II clinical trials): none were identified
CC50 [18]: 44.3 µM
CC50 ([19]; CC50): > 100 µM
CC50 ([19]; human, CC50): 7.4 µM and 3.3 µg/mL
CC50 ([19]; human, Cytotoxicity 50% CC50): 7.4 µM
CC50 [20]: 10.9 µM
CC50 ([21]; CC50): 29 µg/mL
CC50 ([21]; Cytotoxicity 50% CC50): 17 µM
CC50 ([22]; CCRF-CEM cells (T-lymphoblastic acute T cell leukemia), Cytotoxicity CC50, CCRF-CEM): 15.4 µM
CC50 ([22]; CCRF-CEM cells, CC50, Cytotoxicity control, CCRF-CEM, CellTiter MTS): 15.4 µM
CC50 ([11]; Example 11): 34 µM
